Results from patent US10179771B2 (GALAPAGOS NV, priority 2014, dated 2019).

Biological target: T1, Recombinant human TYK2 catalytic domain (Homo sapiens, UniProt P29597)
T1 construct: Recombinant human TYK2 catalytic domain (amino acids 871-1187; catalog number 08-147); purchased Carna biosciences 08-147
T1 sequence (P29597 871-1187): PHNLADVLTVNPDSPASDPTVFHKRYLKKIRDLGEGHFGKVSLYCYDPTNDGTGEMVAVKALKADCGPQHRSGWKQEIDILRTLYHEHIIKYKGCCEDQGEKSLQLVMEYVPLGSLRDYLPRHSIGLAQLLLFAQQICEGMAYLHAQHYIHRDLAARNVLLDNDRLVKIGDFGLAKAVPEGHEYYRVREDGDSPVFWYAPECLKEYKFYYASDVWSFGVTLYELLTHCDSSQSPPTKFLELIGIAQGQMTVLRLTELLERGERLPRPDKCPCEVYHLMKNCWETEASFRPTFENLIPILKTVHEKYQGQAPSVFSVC
Assay: TYK2 inhibition assay
Type: biochemical
Procedure: Recombinant human TYK2 catalytic domain (amino acids 871-1187; catalog number 08-147) was purchased from Carna biosciences. 5 ng of TYK2 was incubated with 12.5 μg polyGT substrate (Sigma catalog number P0275) in kinase reaction buffer (25 mM Hepes pH 7.2, 50 mM NaCl, 0.5 mM EDTA, 1 mM DTT, 5 mM MnCl2, 10 mM MgCl2, 0.1% Brij-35, 0.1 μM non-radioactive ATP, 0.125 μCi ^33P-gamma-ATP (GE Healthcare, catalog number AH9968) final concentrations) with or without 5 μL containing test compound or vehicle (DMSO, 1% final concentration), in a total volume of 25 μL, in a polypropylene 96-well plate (Greiner, V-bottom). After 90 min at 30° C., reactions were stopped by adding 25 μL/well of 150 mM phosphoric acid. All of the terminated kinase reaction was transferred to prewashed (75 mM phosphoric acid) 96 well filter plates (Perkin Elmer catalog number 6005177) using a cell harvester (Perkin Elmer). Plates were washed 6 times with 300 μL per well of a 75 mM phosphoric acid solution and the bottom of the plates was sealed. 40 μL/well of Microscint-20 was added, the top of the plates was sealed and readout was performed using the Topcount (Perkin Elmer). Kinase activity was calculated by subtracting counts per min (cpm) obtained in the presence of a positive control inhibitor (10 μM staurosporine) from cpm obtained in the presence of vehicle. The ability of a test compound to inhibit this activity was determined as: Percentage inhibition=((cpm determined for sample with test compound present−cpm determined for sample with positive control inhibitor) divided by (cpm determined in the presence of vehicle−cpm determined for sample with positive control inhibitor))*100.
Dose dilution series were prepared for the compounds enabling the testing of dose-response effects in the TYK2 assay and the calculation of the IC50 for each compound. Each compound was routinely tested at concentration of 20 μM followed by a 1/3 serial dilution, 8 points (20 μM-6.67 μM-2.22 μM-740 nM-247 nM-82 nM-27 nM-9 nM) in a final concentration of 1% DMSO. When potency of compound series increased, more dilutions were prepared and/or the top concentration was lowered (e.g. 5 μM, 1 μM).

[1] = Illustrative Compounds of the invention (Table XI)

Compound | IC50 [1] [µM] | IC50 (Comparative Compounds (Table XII)) [µM]
CN(c1ccc2ncn(C)c2c1)c1ccc(C#N)cc1F [C, 3-fluoro-4-[methyl-(3-methylbenzimidazol-5-yl)amino]benzonitrile, reference compound] |  | > 0.5
CN(c1cc(NC(=O)[C@H]2C[C@H]2F)c2ncn(C)c2c1)c1ccc(C#N)cc1F [Cpd 15, (1R,2R)-N-[6-(4-cyano-2-fluoro-N-methyl-anilino)-1-methyl-benzimidazol-4-yl]-2-fluoro-cyclopropanecarboxamide] | 0.0001 to 0.05 | 
Cc1cc(S(C)(=O)=O)cc(F)c1N(C)c1cc(NC(=O)[C@H]2C[C@H]2F)c2ncn(C)c2c1 [Cpd 16, (1R,2R)-2-fluoro-N-[6-(2-fluoro-N,6-dimethyl-4-methylsulfonyl-anilino)-1-methyl-benzimidazol-4-yl]cyclopropanecarboxamide] | 0.0001 to 0.05 | 
CN(c1cc(NC(=O)[C@H]2C[C@H]2F)c2ncn(C)c2c1)c1ccc(S(C)(=O)=O)cc1F [Cpd 17, (1R,2R)-2-fluoro-N-[6-(2-fluoro-N-methyl-4-methylsulfonyl-anilino)-1-methyl-benzimidazol-4-yl]cyclopropanecarboxamide] | 0.1 to 0.5 | 
CCc1cc(S(C)(=O)=O)ncc1N(C)c1cc(NC(=O)C2CC2)c2ncn(C)c2c1 [Cpd 18, N-[6-[(4-ethyl-6-methylsulfonyl-3-pyridyl)-methyl-amino]-1-methyl-benzimidazol-4-yl]cyclopropanecarboxamide] | 0.0001 to 0.05 | 
Cc1cc(S(C)(=O)=O)cc(F)c1N(C)c1cc(NC(=O)C2CC2)c2ncn(C)c2c1 [Cpd 19, N-[6-(2-fluoro-N,6-dimethyl-4-methylsulfonyl-anilino)-1-methyl-benzimidazol-4-yl]cyclopropanecarboxamide] | 0.0001 to 0.05 | 
Cc1cc(C#N)ncc1Oc1cc(NC(=O)[C@H]2C[C@H]2F)c2ncn(C)c2c1 [Cpd 20, (1R,2R)-N-[6-[(6-cyano-4-methyl-3-pyridyl)oxy]-1-methyl-benzimidazol-4-yl]-2-fluoro-cyclopropanecarboxamide] | 0.0001 to 0.05 | 
Cc1cc(C#N)nc(F)c1N(C)c1cc(NC(=O)[C@H]2C[C@H]2F)c2ncn(C)c2c1 [Cpd 21, (1R,2R)-N-[6-[(6-cyano-2-fluoro-4-methyl-3-pyridyl)-methyl-amino]-1-methyl-benzimidazol-4-yl]-2-fluoro-cyclopropanecarboxamide] | 0.0001 to 0.05 | 
Cc1cnc(C#N)c(F)c1N(C)c1cc(NC(=O)[C@H]2C[C@H]2F)c2ncn(C)c2c1 [Cpd 22, (1R,2R)-N-[6-[(2-cyano-3-fluoro-5-methyl-4-pyridyl)-methyl-amino]-1-methyl-benzimidazol-4-yl]-2-fluoro-cyclopropanecarboxamide] | 0.0001 to 0.05 | 
Cc1cc(C#N)ncc1Oc1cc(NC(=O)C2CC2)c2ncn(C)c2c1 [Cpd 23, N-[6-[(6-cyano-4-methyl-3-pyridyl)oxy]-1-methyl-benzimidazol-4-yl]cyclopropanecarboxamide] | 0.0001 to 0.05 | 
CCc1cc(C(N)=O)ncc1N(C)c1cc(NC(=O)C2CC2)c2ncn(C)c2c1 [Cpd 24, 5-((4-(cyclopropanecarboxamido)-1-methyl-1H-benzo[d]imidazol-6-yl)(methyl)amino)-4-ethylpicolinamide] | 0.0001 to 0.05 | 
CCc1cc(C(N)=O)ncc1N(C)c1cc(NC(=O)[C@H]2C[C@H]2F)c2ncn(C)c2c1 [Cpd 25, 4-ethyl-5-((4-((1R,2R)-2-fluorocyclopropanecarboxamido)-1-methyl-1H-benzo[d]imidazol-6-yl)(methyl)amino)picolinamide] | 0.0001 to 0.05 | 
Cc1cc(S(C)(=O)=O)ccc1N(C)c1cc(NC(=O)[C@H]2C[C@H]2F)c2ncn(C)c2c1 [Cpd 26, (1R,2R)-N-[6-(N,2-dimethyl-4-methylsulfonyl-anilino)-1-methyl-benzimidazol-4-yl]-2-fluoro-cyclopropanecarboxamide] | 0.0001 to 0.05 | 
CCS(=O)(=O)c1ccc(N(C)c2cc(NC(=O)[C@H]3C[C@H]3F)c3ncn(C)c3c2)c(C)c1 [Cpd 27, (1R,2R)-N-[6-(4-ethylsulfonyl-N,2-dimethyl-anilino)-1-methyl-benzimidazol-4-yl]-2-fluoro-cyclopropanecarboxamide] | 0.0001 to 0.05 | 

Continued, values first:

IC50 [1] [µM] | IC50 (Comparative Compounds (Table XII)) [µM] | Compound
0.0001 to 0.05 |  | CNC(=O)Nc1cc(Oc2cnc(C#N)cc2C)cc2c1ncn2C
0.0001 to 0.05 |  | CCc1cc(C#N)cc(F)c1N(C)c1cc(NC(=O)[C@@H]2C[C@@H]2F)c2ncn(C)c2c1 (racemic) [Cpd 7, N-(6-((4-cyano-2-ethyl-6-fluorophenyl)(methyl)amino)-1-methyl-1H-benzo[d]imidazol-4-yl)-2-fluorocyclopropanecarboxamide (1S,2S)/(1R,2R) racemic mixture]
0.0001 to 0.05 |  | CCc1cc(C#N)ncc1N(C)c1cc(NC(=O)C2CC2)c2ncn(C)c2c1 [Cpd 1, N-(6-((6-cyano-4-ethylpyridin-3-yl)(methyl)amino)-1-methyl-1H-benzo[d]imidazol-4-yl)cyclopropanecarboxamide]
0.0001 to 0.05 |  | CCc1cc(C#N)cc(F)c1Nc1cc(NC(=O)C2CC2)c2ncn(C)c2c1 [Cpd 2, N-(6-(4-cyano-2-ethyl-6-fluorophenylamino)-1-methyl-1H-benzo[d]imidazol-4-yl)cyclopropanecarboxamide]
0.0001 to 0.05 |  | CCc1cc(C#N)cc(F)c1N(C)c1cc(NC(=O)C2CC2)c2ncn(C)c2c1 [Cpd 3, N-(6-((4-cyano-2-ethyl-6-fluorophenyl)(methyl)amino)-1-methyl-1H-benzo[d]imidazol-4-yl)cyclopropanecarboxamide]
0.0001 to 0.05 |  | CCc1cc(C#N)ncc1N(C)c1cc(NC(=O)OC)c2ncn(C)c2c1 [Cpd 4, methyl 6-((6-cyano-4-ethylpyridin-3-yl)(methyl)amino)-1-methyl-1H-benzo[d]imidazol-4-ylcarbamate]
0.0001 to 0.05 |  | CCc1cc(C#N)cc(F)c1N(C)c1cc(NC(=O)OC)c2ncn(C)c2c1 [Cpd 5, methyl 6-((4-cyano-2-ethyl-6-fluorophenyl)(methyl)amino)-1-methyl-1H-benzo[d]imidazol-4-ylcarbamate]
0.0001 to 0.05 |  | CCc1cc(C#N)ncc1Oc1cc(NC(=O)[C@H]2C[C@H]2F)c2ncn(C)c2c1 [Cpd 6, (1R,2R)-N-[6-[(6-cyano-4-ethyl-3-pyridyl)oxy]-1-methyl-benzimidazol-4-yl]-2-fluoro-cyclopropanecarboxamide]
0.0001 to 0.05 |  | CCc1cc(C#N)ncc1N(C)c1cc(NC(=O)[C@H]2C[C@H]2F)c2ncn(C)c2c1 [Cpd 8, (1R,2R)-N-(6-((6-cyano-4-ethylpyridin-3-yl)(methyl)amino)-1-methyl-1H-benzo[d]imidazol-4-yl)-2-fluorocyclopropanecarboxamide]
0.0001 to 0.05 |  | Cc1cc(C#N)ncc1N(C)c1cc(NC(=O)[C@H]2C[C@H]2F)c2ncn(C)c2c1 [Cpd 9, (1R,2R)-N-(6-((6-cyano-4-methylpyridin-3-yl)(methyl)amino)-1-methyl-1H-benzo[d]imidazol-4-yl)-2-fluorocyclopropanecarboxamide]
0.0001 to 0.05 |  | CCc1cc(C#N)ccc1Oc1cc(NC(=O)[C@H]2C[C@H]2F)c2ncn(C)c2c1 [Cpd 10, (1R,2R)-N-[6-(4-cyano-2-ethyl-phenoxy)-1-methyl-benzimidazol-4-yl]-2-fluoro-cyclopropanecarboxamide]
0.0001 to 0.05 |  | CN(c1cc(NC(=O)[C@H]2C[C@H]2F)c2ncn(C)c2c1)c1c(F)cc(C#N)cc1Cl [Cpd 11, (1R,2R)-N-[6-(2-chloro-4-cyano-6-fluoro-N-methyl-anilino)-1-methyl-benzimidazol-4-yl]-2-fluoro-cyclopropanecarboxamide]
0.0001 to 0.05 |  | Cc1cc(F)ncc1N(C)c1cc(NC(=O)[C@H]2C[C@H]2F)c2ncn(C)c2c1 [Cpd 12, (1R,2R)-2-fluoro-N-[6-[(6-fluoro-4-methyl-3-pyridyl)-methyl-amino]-1-methyl-benzimidazol-4-yl]cyclopropanecarboxamide]
0.0001 to 0.05 |  | CN(c1cc(NC(=O)[C@H]2C[C@H]2F)c2ncn(C)c2c1)c1ccc(F)nc1F [Cpd 13, (1R,2R)-N-[6-[(2,6-difluoro-3-pyridyl)-methyl-amino]-1-methyl-benzimidazol-4-yl]-2-fluoro-cyclopropanecarboxamide]
0.0001 to 0.05 |  | CN(c1cc(NC(=O)[C@H]2C[C@H]2F)c2ncn(C)c2c1)c1ccc(C#N)nc1F [Cpd 14, (1R,2R)-N-[6-[(6-cyano-2-fluoro-3-pyridyl)-methyl-amino]-1-methyl-benzimidazol-4-yl]-2-fluoro-cyclopropanecarboxamide]
